Laboratory results taken from patent US12077503B2, “Substituted cyclic amides and their use as herbicides” (FMC CORPORATION, priority 2015, dated 2024).

How the values were obtained:
Type in all cases: in vivo
[1] = tested on: ryegrass, Italian (Italian ryegrass, Lolium multiflorum); assay: Test A postemergence; conditions: Lolium multiflorum, post-emergence, 240 h, 125 g ai/ha, postemergence, visual injury rating after approximately 10 d; read-out: Ryegrass, Italian plant response rating (0 to 100 scale, 0 no effect, 100 complete control)
How it was run: (§1)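 Ratings of 0 (no effect) to 100 (complete control) come from visual comparison with untreated controls roughly 10 d after treatment. Test chemicals, formulated in a non-phytotoxic solvent mixture with surfactant, were applied either as a preemergence directed soil spray on seeded soil or postemergence to one- to two-leaf plants 2 to 10 cm tall.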

corn (Zea mays) = assay: Test A postemergence; conditions: Zea mays, post-emergence, 240 h, 125 g ai/ha, postemergence, visual injury rating after approximately 10 d; read-out: Corn plant response rating (0 to 100 scale, 0 no effect, 100 complete control)
How it was run: as §1

[2] = tested on: barnyardgrass (Echinochloa crus-galli); assay: Test A postemergence; conditions: Echinochloa crus-galli, post-emergence, 240 h, 125 g ai/ha, postemergence, visual injury rating after approximately 10 d; read-out: Barnyardgrass plant response rating (0 to 100 scale, 0 no effect, 100 complete control)
How it was run: as §1

[3] = tested on: pigweed (Amaranthus retroflexus); assay: Test A postemergence; conditions: Amaranthus retroflexus, post-emergence, 240 h, 125 g ai/ha, postemergence, visual injury rating after approximately 10 d; read-out: Pigweed plant response rating (0 to 100 scale, 0 no effect, 100 complete control)
How it was run: as §1

[4] = tested on: giant foxtail (Setaria faberii); assay: Test A postemergence; conditions: Setaria faberi, post-emergence, 240 h, 125 g ai/ha, postemergence, visual injury rating after approximately 10 d; read-out: Foxtail, Giant plant response rating (0 to 100 scale, 0 no effect, 100 complete control)
How it was run: as §1

[5] = tested on: Galium (catchweed bedstraw, Galium aparine); assay: Test A postemergence; conditions: Galium, post-emergence, 240 h, 125 g ai/ha, postemergence, visual injury rating after approximately 10 d; read-out: Galium plant response rating (0 to 100 scale, 0 no effect, 100 complete control)
How it was run: as §1

[6] = tested on: blackgrass (Alopecurus myosuroides); assay: Test A postemergence; conditions: Alopecurus myosuroides, post-emergence, 240 h, 125 g ai/ha, postemergence, visual injury rating after approximately 10 d; read-out: Blackgrass plant response rating (0 to 100 scale, 0 no effect, 100 complete control)
How it was run: as §1

[7] = tested on: wheat (Triticum aestivum); assay: Test A postemergence; conditions: Triticum aestivum, post-emergence, 240 h, 125 g ai/ha, postemergence, visual injury rating after approximately 10 d; read-out: Wheat plant response rating (0 to 100 scale, 0 no effect, 100 complete control)
How it was run: as §1

Kochia (Kochia scoparia) [8] = assay: Test A postemergence; conditions: Bassia scoparia, post-emergence, 240 h, 125 g ai/ha, postemergence, visual injury rating after approximately 10 d; read-out: Kochia plant response rating (0 to 100 scale, 0 no effect, 100 complete control)
How it was run: as §1

[9] = tested on: ryegrass, Italian (Italian ryegrass, Lolium multiflorum); assay: Test A preemergence; conditions: Lolium multiflorum, pre-emergence, 240 h; for pest or weed control at 125 g/ha: 125 g ai/ha, preemergence, 0 to 100 scale where 0 is no effect and 100 is complete control, read-out: Ryegrass, Italian plant response rating; for pest or weed control at 500 g/ha: 500 g ai/ha, Preemergence, visual injury vs untreated controls after approximately 10 d, read-out: Ryegrass, Italian plant response rating (0 to 100 scale where 0 is no effect and 100 is complete control)
How it was run: as §1

[10] = tested on: barnyardgrass (Echinochloa crus-galli); assay: Test A preemergence; conditions: Echinochloa crus-galli, pre-emergence, 240 h; for pest or weed control at 125 g/ha: 125 g ai/ha, preemergence, 0 to 100 scale where 0 is no effect and 100 is complete control, read-out: Barnyardgrass plant response rating; for pest or weed control at 500 g/ha: 500 g ai/ha, Preemergence, visual injury vs untreated controls after approximately 10 d, read-out: Barnyardgrass plant response rating (0 to 100 scale where 0 is no effect and 100 is complete control)
How it was run: as §1

[11] = tested on: pigweed (Amaranthus retroflexus); assay: Test A preemergence; conditions: Amaranthus retroflexus, pre-emergence, 240 h; for pest or weed control at 125 g/ha: 125 g ai/ha, preemergence, 0 to 100 scale where 0 is no effect and 100 is complete control, read-out: Pigweed plant response rating; for pest or weed control at 500 g/ha: 500 g ai/ha, Preemergence, visual injury vs untreated controls after approximately 10 d, read-out: Pigweed plant response rating (0 to 100 scale where 0 is no effect and 100 is complete control)
[12] = tested on: ragweed (common ragweed, Ambrosia elatior); assay: Test A preemergence; conditions: Ambrosia artemisiifolia, pre-emergence, 240 h; for pest or weed control at 125 g/ha: 125 g ai/ha, preemergence, 0 to 100 scale where 0 is no effect and 100 is complete control, read-out: Ragweed plant response rating; for pest or weed control at 500 g/ha: 500 g ai/ha, Preemergence, visual injury vs untreated controls after approximately 10 d, read-out: Ragweed plant response rating (0 to 100 scale where 0 is no effect and 100 is complete control)
How it was run: as §1

[13] = tested on: giant foxtail (Setaria faberii); assay: Test A preemergence; conditions: Setaria faberi, pre-emergence, 240 h; for pest or weed control at 125 g/ha: 125 g ai/ha, preemergence, 0 to 100 scale where 0 is no effect and 100 is complete control, read-out: Foxtail, Giant plant response rating; for pest or weed control at 500 g/ha: 500 g ai/ha, Preemergence, visual injury vs untreated controls after approximately 10 d, read-out: Foxtail, Giant plant response rating (0 to 100 scale where 0 is no effect and 100 is complete control)
How it was run: as §1

Kochia (Kochia scoparia) [14] = assay: Test A preemergence; conditions: Bassia scoparia, pre-emergence, 240 h; for pest or weed control at 125 g/ha: 125 g ai/ha, preemergence, 0 to 100 scale where 0 is no effect and 100 is complete control, read-out: Kochia plant response rating; for pest or weed control at 500 g/ha: 500 g ai/ha, Preemergence, visual injury vs untreated controls after approximately 10 d, read-out: Kochia plant response rating (0 to 100 scale where 0 is no effect and 100 is complete control)
How it was run: as §1

| SMILES | pest or weed control at 125 g/ha [1] [%] | plant injury at 125 g/ha (corn (Zea mays)) [%] | pest or weed control at 125 g/ha [2] [%] | pest or weed control at 125 g/ha [3] [%] | pest or weed control at 125 g/ha [4] [%] | pest or weed control at 125 g/ha [5] [%] | pest or weed control at 125 g/ha [6] [%] | plant injury at 125 g/ha [7] [%] | pest or weed control at 125 g/ha (Kochia (Kochia scoparia) [8]) [%] | pest or weed control at 125 g/ha [9] [%] | pest or weed control at 500 g/ha [9] [%] | pest or weed control at 125 g/ha [10] [%] | pest or weed control at 500 g/ha [10] [%] | pest or weed control at 125 g/ha [11] [%] | pest or weed control at 500 g/ha [11] [%] | pest or weed control at 125 g/ha [12] [%] | pest or weed control at 500 g/ha [12] [%] | pest or weed control at 125 g/ha [13] [%] | pest or weed control at 500 g/ha [13] [%] | pest or weed control at 125 g/ha (Kochia (Kochia scoparia) [14]) [%] | other results |
| --- | --- | --- | --- | --- | --- | --- | --- | --- | --- | --- | --- | --- | --- | --- | --- | --- | --- | --- | --- | --- | --- |
| COc1c(F)ccc([C@H]2CNC(=O)[C@@H]2C(=O)Nc2ccccc2C(F)(F)F)c1Cl [Compound 891] | 0 | 20 | 50 | 0 | 40 | 30 | 0 | 0 | 0 | 0 | 30 | 60 | 80 | 0 | 0 | 0 | 0 | 80 | 90 | 0 | pest or weed control at 500 g/ha (Kochia (Kochia scoparia) [14]): 20% |
| CN1C[C@H](c2cc(F)c(C(F)(F)F)c(F)c2)[C@@H](C(=O)Nc2ccccc2S(C)(=O)=O)C1=O [Compound 900] | 40 | 50 | 80 | 50 | 80 | 20 | 40 | 50 | 30 | 60 | 60 | 90 | 90 | 80 | 90 | 50 | 80 | 90 | 90 | 90 | pest or weed control at 500 g/ha (Kochia (Kochia scoparia) [14]): 90% |
| CN1C[C@H](c2cc(F)c(C(F)(F)F)c(F)c2)[C@@H](C(=O)Nc2ccc(F)cc2F)C1=O [Compound 901] | 0 | 40 | 60 | 0 | 90 | 0 | 20 | 20 | 30 | 20 | 50 | 90 | 90 | 30 | 60 | 0 | 0 | 90 | 90 | 80 | pest or weed control at 500 g/ha (Kochia (Kochia scoparia) [14]): 80% |
| CCOc1ccc([C@H]2CN(C)C(=O)[C@@H]2C(=O)Nc2ccc(F)cc2F)cc1 [Compound 905] | 0 | 0 | 70 | 0 | 60 | 0 | 0 | 0 | 0 | 0 | 0 | 70 | 90 | 0 | 0 | 0 | 0 | 90 | 90 | 10 | pest or weed control at 500 g/ha (Kochia (Kochia scoparia) [14]): 90% |
| CCOc1ccc([C@H]2CNC(=O)[C@@H]2C(=O)Nc2ccc(F)cc2F)cc1 [Compound 908] | 0 | 0 | 20 | 0 | 30 | 0 | 0 | 0 | 0 | 0 | 0 | 0 | 50 | 0 | 0 | 0 | 0 | 30 | 80 | 0 | pest or weed control at 500 g/ha (Kochia (Kochia scoparia) [14]): 0% |
